Test results as given in patent US20250011296A1, “MODULATORS OF MOLECULAR TARGETS EXPRESSED IN METABOLIC AND INFLAMMATORY DISORDERS” (Ohio State Innovation Foundation, priority 2021, published 2025).

How the values were obtained:
[1] = molecular target: T1, PARP-5 (tankyrase-1, TNKS1) (Homo sapiens, UniProt O95271); experiment: PARP-5 enzyme assay (TNKS1 Histone Ribosylation Assay kit); assay type: biochemical; conditions: for PARP-5 inhibitory activity / PARP-5% inhibition: 50 μg/mL; for PARP-5% inhibition: Table 20 summary; for inhibition at 50 µg/mL: read-out: PARP-5% inhibition, Table 15, isolates at 50 μg/mL
T1 construct: purchased BPS Bioscience Inc
T1 sequence (O95271 1-1327): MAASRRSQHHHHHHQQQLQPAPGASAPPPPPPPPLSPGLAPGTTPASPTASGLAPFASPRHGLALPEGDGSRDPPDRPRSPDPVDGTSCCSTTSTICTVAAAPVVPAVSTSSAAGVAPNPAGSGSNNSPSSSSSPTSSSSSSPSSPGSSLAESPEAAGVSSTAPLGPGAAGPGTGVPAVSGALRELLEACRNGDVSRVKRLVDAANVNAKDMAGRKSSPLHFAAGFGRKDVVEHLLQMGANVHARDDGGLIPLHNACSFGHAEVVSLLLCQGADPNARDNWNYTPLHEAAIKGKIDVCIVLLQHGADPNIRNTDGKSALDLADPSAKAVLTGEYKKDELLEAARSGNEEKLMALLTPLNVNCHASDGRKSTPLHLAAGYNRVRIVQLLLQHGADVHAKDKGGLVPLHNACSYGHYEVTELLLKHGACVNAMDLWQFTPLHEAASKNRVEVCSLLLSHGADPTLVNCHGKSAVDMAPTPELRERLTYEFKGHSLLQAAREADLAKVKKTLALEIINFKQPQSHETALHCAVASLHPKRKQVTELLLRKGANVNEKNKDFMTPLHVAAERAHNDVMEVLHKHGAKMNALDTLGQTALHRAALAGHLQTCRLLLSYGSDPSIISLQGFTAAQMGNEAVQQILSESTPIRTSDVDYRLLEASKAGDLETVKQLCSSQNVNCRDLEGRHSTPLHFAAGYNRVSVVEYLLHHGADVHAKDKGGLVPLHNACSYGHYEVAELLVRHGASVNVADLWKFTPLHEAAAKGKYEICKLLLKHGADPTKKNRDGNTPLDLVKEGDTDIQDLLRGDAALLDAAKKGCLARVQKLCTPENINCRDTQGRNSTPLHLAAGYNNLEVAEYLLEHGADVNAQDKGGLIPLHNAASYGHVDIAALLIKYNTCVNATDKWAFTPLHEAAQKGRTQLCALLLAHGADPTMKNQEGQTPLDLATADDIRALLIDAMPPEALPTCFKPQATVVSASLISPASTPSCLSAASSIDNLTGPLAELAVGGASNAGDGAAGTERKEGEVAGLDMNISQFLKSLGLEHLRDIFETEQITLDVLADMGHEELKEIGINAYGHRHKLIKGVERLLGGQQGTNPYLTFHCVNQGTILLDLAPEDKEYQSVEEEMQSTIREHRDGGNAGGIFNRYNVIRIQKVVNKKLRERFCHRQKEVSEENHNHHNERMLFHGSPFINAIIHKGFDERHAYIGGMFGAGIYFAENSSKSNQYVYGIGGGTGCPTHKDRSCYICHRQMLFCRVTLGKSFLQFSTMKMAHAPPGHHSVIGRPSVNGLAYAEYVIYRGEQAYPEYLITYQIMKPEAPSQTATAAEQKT
Experimental: Poly (ADP-ribose) polymerase 5 (PARP-5, also known as tankyrase-1 or TNKS1), is a nuclear enzyme involved in repairing single strand DNA breaks. Agonists of PARP-5 induce DNA repair, but the cost of PARP-5 activation is to slow glycolysis and limit GLUT-4-mediated glucose uptake. Small-molecule inhibition of the PARP-5 enzyme potentiates antidiabetic activities by increasing glucose uptake and insulin sensitivity. Extracts and compounds from the arils of M. fragrans were tested by using the TNKS1 Histone Ribosylation Assay kit (BPS Bioscience Inc.) according to the kit protocol. First, microplate wells were coated with immobilized histone substrate (50 μL) overnight at 4° C., then washed 3 times with PBS-Tween (200 μL). The wells were treated with blocking buffer and washed 3 times with PBS-Tween. The reaction mixture, which contained TNKS assay buffer and NAD+, was added to each sample well. Diluted sample solutions were added to the corresponding wells to achieve final concentrations of 50 μg/mL, followed by TNKS1 enzyme. After 1 hour, the plates were washed 3 times with PBS-Tween and incubated with primary antibody (1:800) for another hour. Following PBS-Tween wash, the secondary-HRP antibody was added (1:1000), incubated for 30 minutes, and finally chemiluminescent substrate was added. The plates were immediately measured for luminescence in the FLUOstar Optima plate reader (BMG Labtechnologies, GmbH, Inc.). The positive control included TNKS1 enzyme, NAD+, and DMSO; the substrate control included enzyme and DMSO; and the negative control included NAD+ and DMSO.297,304 The mace ethyl acetate fractions were screened for PARP-5 inhibition (Table 4).

[2] = system: PPAR-γ expression; experiment: Larval diabetic zebrafish assay, Western blot of PPAR-γ; assay type: in vivo; conditions: diabetic zebrafish larvae, 10 μM
Experimental: Western blot analysis of zebrafish expression levels for glycated hemoglobin, metabolic enzymes, and molecular targets NFκB and PPAR-γ was performed to evaluate potential lead improvement and to discover possible mechanisms of action.
Wild-type zebrafish were sorted into 24-well microplates with 10 fish per well for a four-phase treatment cycle. At 72 hpf, type 2 diabetes was induced by administering 0.5 mg/mL alloxan in fish water for percutaneous absorption. […] At 78 hpf, the incubation solution was changed to 10 mg/ml D-glucose for 30 minutes, followed by a phase-four rinse in fresh system w Following the four-phase treatment cycle, zebrafish treatment groups were snap frozen in microcentrifuge tubes on dry ice, stored overnight at −80° C., thawed, and homogenized with 2 μL PBS per animal. Following centrifugation (60 minutes at 4° C. and 17,000 rpm), protein content of the homogenate supernatant was determined using the Pierce BCA Protein Assay kit (Pierce Biotechnology). Homogenates were analyzed by Western blot with equal amounts of total protein (20 μg) in each sample and using 4×LDS loading buffer (NuPAGE Life Technologies).
Electrophoresis was performed with NuPAGE MES SDS Running Buffer and using the XCell SureLock Mini-Cell Electrophoresis System (Life Technologies). Proteins separated on the gel were transferred to a PVDF membrane using TBST buffer. The blots were blocked in 3% BSA in TBST and subsequently probed overnight with primary antibodies (1:1000 in 1% BSA in TBST) against each target of interest. Following TBST rinses, secondary HRP-conjugated antibodies (1:2000) were applied to the membrane for 60 minutes. The HRP conjugated antibodies were detected using SuperSignal West Femto chemiluminescent substrate (Pierce Biotechnology) and immunoblot images were captured using the luminometer and Lumi Analyst 3.0 software.
Band densities were determined using ImageJ Gel Analysis to determine expression levels of each protein of interest. Expression levels of HbA1C, PPAR-γ, and NFκB were organized into a bar graphs (FIG. 5) with band densities calculated in comparison to the housekeeping gene β-actin, normalized to the untreated diabetic group (B) of zebrafish. […].

[3] = preliminary Western blot (FIG. 4/5)

| Compound | PARP-5 inhibitory activity [1] | PARP-5% inhibition [1] [%] | inhibition at 50 µg/mL [1] [%] | PPAR-γ expression (band density) [2, 3] | PPAR-γ expression (band density) ([2]; duplicate Western blot (FIG. 8)) |
| --- | --- | --- | --- | --- | --- |
| C/C=C/c1cc(OC)c2c(c1)[C@H](C)[C@@H](c1ccc3c(c1)OCO3)O2 [Compound 41, licarin B] | not effective PARP-5 inhibitors | <50 | < 50 | did not upregulate PPAR-γ expression |  |
| C/C=C/c1cc(OC)c2c(c1)[C@H](C)[C@@H](c1ccc(O)c(OC)c1)O2 [Compound 42, licarin A] | not effective PARP-5 inhibitors | <50 | < 50 | greater PPAR-γ expression that 41 | reliably intermediate between the rosiglitazone-treated and untreated diabetic groups |
